The target in the experiment is T1, soluble guanylate cyclase (α1 and β1 subunits of guanylate cyclase, expressed in Sf9 cells) (Homo sapiens, UniProt Q02108+Q02153).
T1 construct: made in house; host or cells: Sf9 insect cells (baculovirus co-infection); high-speed supernatant used unpurified
T1 sequence (Q02108 1-690): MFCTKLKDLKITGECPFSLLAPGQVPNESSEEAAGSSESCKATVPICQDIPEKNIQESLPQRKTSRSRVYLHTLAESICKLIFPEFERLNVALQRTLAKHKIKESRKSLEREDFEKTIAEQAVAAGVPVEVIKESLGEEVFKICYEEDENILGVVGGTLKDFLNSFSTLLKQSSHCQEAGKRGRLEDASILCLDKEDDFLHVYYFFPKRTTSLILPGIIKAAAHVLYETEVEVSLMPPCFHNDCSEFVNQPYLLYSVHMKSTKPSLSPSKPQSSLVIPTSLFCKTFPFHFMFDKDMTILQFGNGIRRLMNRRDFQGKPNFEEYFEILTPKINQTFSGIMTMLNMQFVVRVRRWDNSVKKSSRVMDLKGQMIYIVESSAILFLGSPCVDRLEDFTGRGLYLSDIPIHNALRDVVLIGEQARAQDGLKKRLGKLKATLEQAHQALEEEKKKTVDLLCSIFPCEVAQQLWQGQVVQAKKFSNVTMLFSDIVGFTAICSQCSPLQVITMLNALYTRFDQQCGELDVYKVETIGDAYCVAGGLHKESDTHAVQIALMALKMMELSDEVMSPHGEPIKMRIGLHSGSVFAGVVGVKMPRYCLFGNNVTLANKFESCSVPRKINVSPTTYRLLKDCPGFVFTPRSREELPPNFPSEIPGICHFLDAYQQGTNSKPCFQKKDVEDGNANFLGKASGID
T1 sequence (Q02153 1-619): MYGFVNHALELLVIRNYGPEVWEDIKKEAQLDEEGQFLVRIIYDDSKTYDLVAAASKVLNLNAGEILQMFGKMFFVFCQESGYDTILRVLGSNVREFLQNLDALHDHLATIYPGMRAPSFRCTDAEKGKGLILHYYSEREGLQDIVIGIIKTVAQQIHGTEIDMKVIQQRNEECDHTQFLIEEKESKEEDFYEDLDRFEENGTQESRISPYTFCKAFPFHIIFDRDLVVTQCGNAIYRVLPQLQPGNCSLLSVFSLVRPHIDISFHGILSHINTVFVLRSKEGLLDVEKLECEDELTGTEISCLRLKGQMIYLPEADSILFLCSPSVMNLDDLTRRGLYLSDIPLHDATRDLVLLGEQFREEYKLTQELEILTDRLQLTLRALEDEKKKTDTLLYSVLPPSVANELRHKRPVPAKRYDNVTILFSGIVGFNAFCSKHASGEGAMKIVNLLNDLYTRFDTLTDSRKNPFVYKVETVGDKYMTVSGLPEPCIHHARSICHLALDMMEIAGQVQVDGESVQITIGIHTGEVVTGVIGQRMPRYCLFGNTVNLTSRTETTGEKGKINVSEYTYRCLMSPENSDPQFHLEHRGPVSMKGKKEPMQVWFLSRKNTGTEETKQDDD
The experiment is described as follows: Guanylate Cyclase Assay (formation of cyclic GMP from GTP, with and without SNP). In kind it is biochemical. The settings on record: compound at 100 μM without SNP; normalized with the activity of 100 μM YC-1 (without SNP) as 100%. The procedure:
Sf9 cells were cultured in Sf-90011 medium supplemented with 10% (v/v) fetal calf serum at 28° C. to give a count of 6×10^5 cells/ml. The cells were then infected with a mixture of the virus stocks for the α1 and β1 subunits of guanylate cyclase at a multiplicity of infection of 0.1 pfu/cell. The cells were harvested 72 hours after infection and were pelleted by centrifugation. The resulting cell pellets were homogenized with Polytron homogenizer in 3 volumes of 20 mM Tris-HCl (pH 7.6) containing 1 mM EDTA, 5 mM dithiothreitol, 90 mM NaCl, 10% glycerol, and protease inhibitors mix (Roche Molecular Biochemicals). The homogenate was centrifuged at 50,000×g for 60 minutes and the supernatant was aliquotted and stored at −80° C. […]
Guanylate cyclase activity was measured by the formation of cyclic GMP from GTP in a total volume of 100 μl. […] The solution was centrifuged at 3000 rpm for 15 minutes at room temperature and cyclic GMP in 20 μl of the resulting supernatant was measured according to the protocol of Amersham cyclic GMP enzymeimmunoassay system (purchased from Sigma, catalogue number RPN 226).
Compounds of the present invention were tested at 100 μM with and without 1 μM sodium nitro prusside (SNP). […] Mean basal efficacy, in Table 1, was expressed as a percentage of 100 μM YC-1 (without SNP). […]

Molecules are shown by their SMILES.

On to `CC(O)CCNC(=O)/C=C/c1ccccc1Sc1ccc(Cl)cc1` (stereo not shown) [Example 38, (2E)-3-{2-[(4-chlorophenyl)thio]pheny}-N-(3-hydroxybutyl)acrylamide], for which the “Mean basal efficacy of compound alone at 100 μM, [%]” value turned out to be 60%.

For the origin of these results see patent US20040192680A1, “Novel amides that activate soluble guanylate cyclase” (priority 2002, published 2004).
